Earlier results in patent US6541424B2, “Manufacture and use of a herbicide formulation” (Helena Chemical Company, priority 2000, dated 2003).

Q: With `O=C(O)CNCP(=O)(O)O` [Glyphosate] as the molecule, how does the solubility in water read?
A: The solubility in water was “approximately 1.2%”.
